According to patent publication US12369579B2, “Antimicrobial agents and compositions and uses thereof” (KODA Therapeutics, LLC, priority 2019, dated 2025):
Converted amounts (≈) assume the structure as drawn. Like-named read-outs stand apart in the source and are kept apart here.

Assays:
H. pylori [1] = experiment: Antibacterial synergy by checkerboard assay (FICI) with antibiotics and proton pump inhibitors; format: cell-based, Helicobacter pylori; settings: tested with amoxicillin, clarithromycin, omeprazole and pantoprazole; synergistic effect = FICI ≤0.5
Method: Compounds 1, 13, 15, and 16 were tested with Amoxxicillin, Clarithromycin, Omeprazole, and Pantoprazole.
Antibacterial synergy was tested using the checkerboard assay. The compound of interest was combined with antibiotics and proton pump inhibitors (PPIs). In this series of experiments cultures of H. pylori were adjusted to OD600=0.06 and added to compound pairs that had been serially diluted in the same 96-well plates, vertically for one compound and horizontally for the other. Assays were carried out in triplicate as described in the antibacterial susceptibility assay sub-section. The combinatorial inhibitory concentration was indicated by the FICI. FICI=MICA combination/MICA alone+MICB combination/MICB alone.

H. pylori strain 43504 = experiment: MIC against H. pylori strain 43504; format: cell-based, Helicobacter pylori
Method: (§1) The MIC and MBC of the compounds can be measured with the following procedure: In vitro antibacterial activity was tested using the broth microdilution assay. Experiments were carried out in triplicate using Müller-Hinton broth supplemented with 10% FBS in 96-well plates at a total assay volume of 100 μL. Antimicrobials were tested against H. pylori. Two-fold serial dilutions were prepared between the concentration range 0.01-64 μg/mL. An initial bacterial inoculum was adjusted to OD600=0.06 and incubated with test compounds at 37° C. for 3 days in humidified incubators under the 5% CO2 atmosphere. OD600 was measured and the lowest concentration of compound that inhibited bacterial growth was reported as the MIC. See Gwisai T, et al. Repurposing niclosamide as a versatile antimicrobial surface coating against device-associated, hospital-acquired bacterial infections. Biomed Mater. 2017; 12(4):045010. The pH was adjusted to acidic condition with 1 N HCL. The minimal bactericidal concentration (MBC) was determined by plating 5 μL of broth culture from the MIC assay onto Müller-Hinton agar (BD Biosciences) supplemented with 10% FBS. After 72 h, the lowest concentration at which colonies were not observed was reported as the MBC.

H. pylori [2] = experiment: MBC by plating broth culture from the MIC assay onto Müller-Hinton agar; format: cell-based; settings: Helicobacter pylori
Method: as §1

H. pylori [3] = experiment: MIC by broth microdilution assay against H. pylori; format: cell-based; settings: Helicobacter pylori, 72 h
Method: as §1

H. pylori [4] = experiment: MIC in acidic pH environments; format: cell-based; settings: Helicobacter pylori
Method: as §1
MIC data in acidic pH is shown in Table 6 for selected compounds identified by compound number.

H. pylori strain 51932 = experiment: MIC against H. pylori strain 51932; format: cell-based, Helicobacter pylori
Method: as §1

H. pylori strain 49503 = experiment: MIC against H. pylori strain 49503; format: cell-based, Helicobacter pylori
Method: as §1

[5] = H. pylori, lowest concentration without colonies after 72 h, read-out: MBC
[6] = H. pylori, Müller-Hinton broth with 10% FBS, 37° C., 3 days, read-out: MIC

MIC (H. pylori [3]; [6]) | Compound | MBC (H. pylori [2]; [5]) | MBC (H. pylori [2]; 72 h) | MIC (H. pylori [3]) | also measured
0.25 µg/mL (≈ 0.768 µM) | O=C(/C=C/c1ccccc1)N/N=C1\CCCc2oc([N+](=O)[O-])cc21 [Compound 16] | 0.25 µg/mL (≈ 0.768 µM) |  |  | Combination effect with secondary agent (FIG. 1) (H. pylori [1]): synergistic effect; MIC (H. pylori strain 43504): 1.0 µg/mL (≈ 3.07 µM); MIC (H. pylori [4]; pH 5.5, read-out: MIC): 0.06 µg/mL (≈ 0.184 µM); MIC (H. pylori [4]; pH 6.5, read-out: MIC): 0.25 µg/mL (≈ 0.768 µM); MIC (H. pylori [4]; pH 6.0, read-out: MIC): 0.25 µg/mL (≈ 0.768 µM); MIC (H. pylori [4]; pH 7.0, read-out: MIC): 0.25 µg/mL (≈ 0.768 µM)
4 µg/mL | Br.Nc1nc2c(s1)CCc1oc([N+](=O)[O-])cc1-2 [Compound 9] | 4 µg/mL |  |  | 
 | CCOP(=O)(N/N=C/c1ccc([N+](=O)[O-])o1)Nc1ccc(C)cc1 (stereo not shown) [Compound 2] |  | 2 µg/mL (≈ 5.68 µM) | 2 µg/mL (≈ 5.68 µM) | 
4 µg/mL | Br.CNc1nc2c(s1)CCc1oc([N+](=O)[O-])cc1-2 [Compound 10] | 4 µg/mL |  |  | 
0.25 µg/mL (≈ 0.764 µM) | O=C(Nc1ccc([N+](=O)[O-])cc1Cl)c1cc(Cl)ccc1O [Niclosamide, reference compound] | 0.5 µg/mL (≈ 1.53 µM) |  |  | 
1 µg/mL (≈ 3.51 µM) | O=C(/C=C/c1ccccc1)N/N=C/c1ccc([N+](=O)[O-])o1 [Compound 11] | 1 µg/mL (≈ 3.51 µM) |  |  | 
 | CCOP(=O)(N/N=C/c1ccc([N+](=O)[O-])o1)Nc1ccc(Cl)cc1 (stereo not shown) [Compound 4] |  | 1 µg/mL (≈ 2.68 µM) | 1 µg/mL (≈ 2.68 µM) | 
 | CCOP(=O)(N/N=C1\CCCc2oc([N+](=O)[O-])cc21)Nc1ccccc1 (stereo not shown) [Compound 15] |  | 0.25 µg/mL (≈ 0.661 µM) | 0.25 µg/mL (≈ 0.661 µM) | MIC (H. pylori strain 51932): 0.25 µg/mL (≈ 0.661 µM); Combination effect with secondary agent (FIG. 1) (H. pylori [1]): synergistic effect; MIC (H. pylori strain 43504): 1.0 µg/mL (≈ 2.64 µM); MIC (H. pylori strain 49503): 0.25 µg/mL (≈ 0.661 µM); MIC (H. pylori [4]; pH 5.5): 0.06 µg/mL (≈ 0.159 µM); MIC (H. pylori [4]; pH 6): 0.25 µg/mL (≈ 0.661 µM); MIC (H. pylori [4]; pH 6.5): 0.25 µg/mL (≈ 0.661 µM); MIC (H. pylori [4]; pH 7): 0.25 µg/mL (≈ 0.661 µM)
 | CCOP(=O)(N/N=C/c1ccc([N+](=O)[O-])o1)Nc1ccc(OC)cc1 (stereo not shown) [Compound 3] |  | 2 µg/mL (≈ 5.43 µM) | 2 µg/mL (≈ 5.43 µM) | 
 | O=[N+]([O-])c1ccc(/C=N/N=C/c2ccc([N+](=O)[O-])o2)o1 [Compound 14] |  | 4 µg/mL (≈ 14.4 µM) | 4 µg/mL (≈ 14.4 µM) | 
 | CCOP(=O)(N/N=C/c1ccc([N+](=O)[O-])o1)Nc1ccccc1 (stereo not shown) [Compound 1] |  | 2 µg/mL (≈ 5.91 µM) | 1 to 2 µg/mL (≈ 2.96 to 5.91 µM) | MIC (H. pylori strain 51932): 1.0 µg/mL (≈ 2.96 µM); Combination effect with secondary agent (FIG. 1) (H. pylori [1]): synergistic effect; MIC (H. pylori strain 43504): 2.0 µg/mL (≈ 5.91 µM); MIC (H. pylori strain 49503): 1.0-2.0 μ/mL; MIC (H. pylori [4]; pH 5.5): 0.25 µg/mL (≈ 0.739 µM); MIC (H. pylori [4]; pH 6): 1 µg/mL (≈ 2.96 µM); MIC (H. pylori [4]; pH 6.5): 1 µg/mL (≈ 2.96 µM); MIC (H. pylori [4]; pH 7): 1 µg/mL (≈ 2.96 µM)
 | CCOP(=O)(NCc1ccccc1)N/N=C/c1ccc([N+](=O)[O-])o1 (stereo not shown) [Compound 7] |  | 2 µg/mL (≈ 5.68 µM) | 2 µg/mL (≈ 5.68 µM) | 
 | CCOP(=O)(N/N=C/c1ccc([N+](=O)[O-])o1)Nc1ccc(Cl)c(Cl)c1 (stereo not shown) [Compound 5] |  | 1 µg/mL (≈ 2.46 µM) | 1 µg/mL (≈ 2.46 µM) | 
1 µg/mL (≈ 5.52 µM) | O=C1CCCc2oc([N+](=O)[O-])cc21 [Compound 12] | 1 µg/mL (≈ 5.52 µM) |  |  | 
0.01 µg/mL (≈ 0.0274 µM) | CC1(C)S[C@@H]2[C@H](NC(=O)[C@H](N)c3ccc(O)cc3)C(=O)N2[C@H]1C(=O)O [Amoxicillin, reference compound] | 0.025 µg/mL (≈ 0.0684 µM) |  |  | 
 | CCOP(=O)(N/N=C/c1ccc([N+](=O)[O-])o1)Nc1ccc2c(c1)OCO2 (stereo not shown) [Compound 6] |  | 2 µg/mL (≈ 5.23 µM) | 2 µg/mL (≈ 5.23 µM) | 
0.25 µg/mL (≈ 1.05 µM) | NC(=O)N/N=C1/CCCc2oc([N+](=O)[O-])cc21 [Compound 13] | 0.25 µg/mL (≈ 1.05 µM) |  |  | Combination effect with secondary agent (FIG. 1) (H. pylori [1]): synergistic effect; MIC (H. pylori strain 43504): 0.5 µg/mL (≈ 2.1 µM); MIC (H. pylori [4]; pH 5.5, read-out: MIC): 0.06 µg/mL (≈ 0.252 µM); MIC (H. pylori [4]; pH 6.5, read-out: MIC): 0.25 µg/mL (≈ 1.05 µM); MIC (H. pylori [4]; pH 6.0, read-out: MIC): 0.25 µg/mL (≈ 1.05 µM); MIC (H. pylori [4]; pH 7.0, read-out: MIC): 0.25 µg/mL (≈ 1.05 µM)
4 µg/mL (≈ 10.2 µM) | Cc1ccc(NP(=O)(N/N=C/c2ccc([N+](=O)[O-])o2)N2CCOCC2)cc1 (stereo not shown) [Compound 8] | 4 µg/mL (≈ 10.2 µM) |  |  | 
